We go through 2 molecules from article PMC6679700 (International Journal of Nanomedicine, 2019).

Data set [1] can be described thus: Solubility of FK506 in water, MCE and MCE ME. As to conditions: menthol/camphor eutectic, ratio 3/1 (w/w). It counts as physicochemical.
For data set [2] the following is noted: cited from earlier work.
Data set [3] concerns TRPM8. As to conditions: skin; cited from earlier work.

The term Aqueous solubility denotes the dissolved amount per volume that the medium holds.

For `C=CC[C@@H]1/C=C(\C)C[C@H](C)C[C@H](OC)[C@H]2O[C@@](O)(C(=O)C(=O)N3CCCC[C@H]3C(=O)O[C@H](/C(C)=C/[C@@H]3CC[C@@H](O)[C@H](OC)C3)[C@H](C)[C@@H](O)CC1=O)[C@H](C)C[C@@H]2OC` [FK506, Tacrolimus], the “Solubility of FK506 in MCE” value in data set [1] was 136 mg/mL. In addition, in data set [2], the Aqueous solubility was 0.004 to 0.012 mg/mL.
With `CC1CCC(C(C)C)C(O)C1` (stereo not drawn) [Menthol, menthol], the “Duration of cool sensation” value in data set [3] is “up to 70 mins”.
